{"source": "patent US20130273557A1", "about": "(priority 2010, published 2013)", "key": {"[1]": {"system": "digitonin-permeabilized cultured cortical neurons", "method": "(§1) Primary rat cortical cultures were incubated with digitonin (10 μg/ml) and rotenone (100 nM) for 45 minutes in MAS1 buffer prior to measurement of oxygen consumption rate (OCR) by a Seahorse® flux analyzer. […] Data are shown as a percentage of the control group OCR±SEM.\nPrimary cultures of cortical neurons were prepared as described previously, plated at 8×10^5 cells/well for Seahorse XF24 experiments and grown in Neurobasal A supplemented with B27, 1 mM glutamine and penicillin/streptomycin for […] in vitro (DIV). On DIV 7, media without antibiotics was substituted. The cultures were used on DIV 9-10.\n(§2) OCR and ECAR were measured with a Seahorse® XF24 Flux Analyzer (Seahorse Bioscience, Billerica, Mass.). For PSI experiments on C2C12 cells, basal values were assessed in non-buffered DMEM Assay Medium without glucose, glutamine or pyruvate, and supplemented with 25 mM glucose, 6 mM Glutamax®, and 1 mM sodium pyruvate. […] Succinate and ADP stocks were diluted to 10× concentrations in pre-warmed XF MAS buffer, pH 7.2. Using a Plate Prep Station (Seahorse Bioscience, Billerica, Mass.), cells were washed with 1 mL buffer and were brought to 607 μL with buffer. […] Raw basal OCR and ECAR values were normalized as a percent of the mean control value for each individual experiment. Normalized data from experiments were expressed as mean±SEM."}, "[2]": {"target": "human F1FO ATP synthase b subunit (Homo sapiens, UniProt P24539)", "sequence (P24539 43-256)": "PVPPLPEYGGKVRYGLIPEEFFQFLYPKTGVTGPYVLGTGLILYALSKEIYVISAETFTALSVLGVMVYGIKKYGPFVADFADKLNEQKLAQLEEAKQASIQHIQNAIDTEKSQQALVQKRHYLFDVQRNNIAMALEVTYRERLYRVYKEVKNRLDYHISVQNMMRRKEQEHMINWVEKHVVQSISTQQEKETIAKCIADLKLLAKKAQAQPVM", "settings": "co-incubation in 'cold' dexpramipexole (100 μM)", "excerpt": "(§6) The human ORF constructs for alpha, beta, b, c, delta, d, epsilon, gamma and OSCP ATP synthase subunits, tagged with Myc and DDK (Flag) tags were from Origene Technologies (Rockville, Md.). 293T cells were transfected with the above constructs, using the calcium phosphate method (Li et al. 2008). On day-3 post transfection, the cells were lysed and the fusion proteins were bound to the EZview™ Red ANTI-FLAG® M2 Affinity Gel (Sigma, USA), according to the manufacturer's protocol. The proteins were eluted from a portion of the samples and presence of the proteins on the beads was verified by immunoblot analysis, using the mouse anti-Myc antibodyies (Cell signaling Technology). […] They were spun at 3000×g in 0.45 um Spin-X centrifugal devices (Corning Life Sciences, USA) for 10 min. The samples were washed three times with PBS and the filter units were incubated in Ultima Gold scintillation liquid (Perkin Elmer Health Sciences, Inc.) overnight. Samples were counted for ^14C, using a Beckman Coulter LS 5000TD scintillation counter."}, "[3]": {"system": "SH-SY5Y neuroblastoma cells", "settings": "1-100 μM; 24 hr", "method": "(§3) Undifferentiated SH-SY5Y human neuroblastoma cells (ATCC, Manasses, Va.) were maintained in humidified 5% CO2 in 1:1 Ham's F12 nutrient mixture with Glutamax® and Minimal Essential Medium with L-glutamine (MEM-Alpha), 10% FBS, and 1% penicillin/streptomycin (Gibco® Invitrogen Corp., Carlsbad, Calif.).\n(§4) Cellular viability was measured using CellTiter-Blue® (Promega Corp., Madison, Wis.) in black-walled optical imaging multiwell plates, and cellular ATP was measured using the CellTiter-Glo® (Promega Corp., Madison, Wis.) luminescence assay in opaque-walled multiwell plates according to the manufacturer's protocol."}, "subjects with ALS": {"system": "subjects with ALS", "settings": "double-blind, placebo- and low-dose-controlled 2-part Phase 2; cited from earlier work"}, "[4]": {"system": "single cultured hippocampal neurons", "settings": "acute application of 10 μM, after 1-5 min", "method": "Oxygen uptake was measured in single hippocampal neurons in culture (DIV 14-17). A […] (tip diameter) oxygen-sensing electrode oscillated 10 μm close-to and away-from the cell every 3 sec. The difference in current detected at the two positions was translated into oxygen flux."}, "[5]": {"target": "leak conductance of SMVs enriched in F1FO ATP synthase (complex V) (Rattus norvegicus, UniProt P19511+Q06647)", "assay": "biochemical", "method": "(§5) Reagents were rapidly perfused into the recording chamber.\nGiga-ohm seals were formed on SMVs using pipettes and solutions as above. Peak membrane conductance was measured as described above."}, "[6]": {"system": "models of cell death and NDDs", "settings": "compared with pramipexole; cited from earlier work"}, "[7]": {"system": "Ca^2+-induced ion conductance in mitochondria", "settings": "2 or 20 μM, in 100 μM Ca^2+", "description": "Patch-clamp recordings were made from de-energized mitochondria in intracellular solution (120 mM potassium chloride, 8 mM NaCl, 0.5 mM EGTA, 10 mM HEPES, pH adjusted to 7.3) at room temperature (22-25° C.). Pipettes (80-100M0) were filled with the same solution; recordings were made using a Heka 8 amplifier with Vm held at positive voltages up to +180 mV. Data were recorded at 20 kHz and filtered at 500-1000 Hz. […] Reagents were rapidly perfused into the recording chamber. Peak membrane conductance was measured as the peak amount of current (pA) from zero, converted to pS by assuming a linear I-V relationship. Discrete channel conductances were sorted by activity (% occurrence of a conductance level per unit time measured using pCLAMP 10 software, Molecular Devices, Sunnyvale, Calif.); levels defined as closed (no current), small (<200 pS), intermediate (>200 pS and <750 pS) and large (>750 pS). Mean open time (NPo; open time of discrete single channels times the apparent number of single channels in the patch) was used to assess drug effect"}, "citrate synthase": {"system": "citrate synthase", "settings": "dexpramipexole 30 μM", "method": "as §1"}, "[8]": {"target": "T1, intermediate- and large-conductance channel activity of PSI-mitochondria (Rattus norvegicus, UniProt P19511+Q06647)", "T1 sequence (P19511 43-256)": "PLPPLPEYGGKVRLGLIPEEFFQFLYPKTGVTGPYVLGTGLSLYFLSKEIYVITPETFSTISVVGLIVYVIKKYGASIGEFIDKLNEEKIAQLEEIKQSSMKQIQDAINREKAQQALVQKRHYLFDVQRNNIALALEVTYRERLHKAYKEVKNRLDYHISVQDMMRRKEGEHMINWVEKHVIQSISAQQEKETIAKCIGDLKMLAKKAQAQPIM", "T1 sequence (Q06647 24-213)": "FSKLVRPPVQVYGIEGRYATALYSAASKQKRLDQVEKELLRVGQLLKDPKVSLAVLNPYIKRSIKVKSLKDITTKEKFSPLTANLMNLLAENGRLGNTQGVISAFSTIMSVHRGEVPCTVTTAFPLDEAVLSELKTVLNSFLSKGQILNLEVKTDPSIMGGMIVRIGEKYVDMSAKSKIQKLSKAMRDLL", "assay": "Patch clamp recording of brain-derived PSI-mitochondria", "format": "biochemical", "method": "Isolation of Brain-derived Mitochondria. Standard techniques were adapted for isolating brain-derived mitochondria. Mitochondria were stored in isolation buffer (IB) at −80° C. For PSI-mitochondria, male Sprague-Dawley rats (6 wo, ˜200 gm, 3-6 rats/group/condition, at least 2 different preparations/experimental paradigm) were injected with the ubiquitin proteasome inhibitor Z-Ile-Glu(OtBu)-Ala-Leu-al (PSI; Peptides International Inc, Kentucky, USA; s.c. every other day for 1 or 2 weeks; 6.0 mg/kg PSI in DMSO, or with DMSO, 200 μL/rat), and mitochondria isolated and stored as above.\nas §5"}, "[9]": {"system": "cultured hippocampal neurons", "settings": "10 μM, 12 hr pre-treatment", "method": "as §4, with “Cultured hippocampal neurons were prepared and plated on 96 well plates. […] Cellular” for “Cellular”"}, "[10]": {"system": "G93A-SOD1 mutant mouse model of ALS", "settings": "independent laboratory; cited from earlier work"}, "[11]": {"system": "SH-SY5Y neuroblastoma cells", "settings": "30 μM", "method": "as §3, §2"}, "[12]": {"target": "human F1FO ATP synthase OSCP subunit (Homo sapiens, UniProt P48047)", "sequence (P48047 24-213)": "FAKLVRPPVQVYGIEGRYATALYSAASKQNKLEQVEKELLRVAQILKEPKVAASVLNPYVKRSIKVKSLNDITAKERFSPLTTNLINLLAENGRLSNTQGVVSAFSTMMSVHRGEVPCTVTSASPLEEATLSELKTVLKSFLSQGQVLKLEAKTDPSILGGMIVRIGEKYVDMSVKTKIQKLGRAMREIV", "settings": "co-incubation in 'cold' dexpramipexole (100 μM)", "excerpt": "as §6"}, "[13]": {"settings": "30 μM applied 1 hr prior to recording"}}, "data": [{"smiles": "CCCN[C@@H]1CCc2nc(N)sc2C1", "note": "[dexpramipexole, (6R)-4,5,6,7-tetrahydro-N-6-propyl-2,6-benzothiazole-diamine]", "values": [{"measurement": "OCR during succinate incubation", "setting": "[1]; [13]", "result": "lower OCR"}, {"measurement": "OCR following an ADP pulse", "setting": "[1]; [13]", "result": "significantly lower OCR"}, {"measurement": "increase in OCR produced by succinate and following the ADP pulse", "setting": "[1]; acute application 30 μM", "result": "less than in control cells"}, {"measurement": "basal respiration", "setting": "[1]; acute application 30 μM, rotenone", "result": "did not affect"}, {"measurement": "competition of ^14C-dexpramipexole binding to b subunit", "setting": "[2]", "result": "significantly reduced binding"}, {"measurement": "maximal group increases in ATP levels relative to control", "setting": "[3]", "result": "~18", "unit": "%"}, {"measurement": "trends in efficacy", "setting": "subjects with ALS", "result": "reduction of functional decline and decreased mortality"}, {"measurement": "decrease in average oxygen flux", "setting": "[4]", "result": "~16", "unit": "%"}, {"measurement": "EC50", "setting": "[5]", "result": 111, "unit": "nM"}, {"measurement": "currents in SMVs", "setting": "[5]; high [Ca^2+], 2 μM dexpramipexole, 1.0 μM CSA", "result": "inhibited"}, {"measurement": "protection", "setting": "[6]", "result": "equally protective"}, {"measurement": "mitochondrial membrane currents", "setting": "[7]", "result": "effectively decreased"}, {"measurement": "levels of citrate synthase", "setting": "citrate synthase", "result": "unchanged"}, {"measurement": "Hill slope of concentration-response curve", "setting": "[8]; NPO inhibition in PSI-mitochondria", "result": "< 1"}, {"measurement": "concentration for full inhibition of aberrant currents (EC100)", "setting": "[8]; PSI-mitochondria", "result": "> 10", "unit": "µM"}, {"measurement": "intermediate- and large-conductance channel activity", "setting": "[8]; PSI-mitochondria", "result": "the inhibition was concentration-dependent and reversible"}, {"measurement": "peak conductance", "setting": "[8]; dexpramipexole 2 μM, CSA 1 μM, PSI-mitochondria", "result": "significantly and reversibly decreased peak conductance"}, {"measurement": "concentrations producing complete elimination of aberrant currents (EC100)", "setting": "[8]; level stated in discussion", "result": "10 to 30", "unit": "µM"}, {"measurement": "increase in ATP levels compared to vehicle-treated cultures", "setting": "[9]", "result": 11, "unit": "%"}, {"measurement": "in vivo survival", "setting": "[10]", "result": "significantly increased in vivo survival"}, {"measurement": "basal oxygen consumption rate (OCR)", "setting": "[11]", "result": "modestly decreased"}, {"measurement": "competition of ^14C-dexpramipexole binding to OSCP subunit", "setting": "[12]", "result": "significantly reduced binding"}]}]}
